Reference: patent publication US5798093A (priority 1997, dated 1998)

How the values were obtained:
[1] = test system: itch; conditions: cited from earlier work
[2] = test system: Compound 48/80-induced scratching; assay: Anti-pruritic activity, mouse scratch model (Compound 48/80-induced scratching); format: in vivo, mouse (male Swiss albino); conditions: s.c.; for Mean % Inhibition of Scratching: Compound 48/80 challenge, 30 min; for antagonism of Compound 48/80-induced scratching (in words): dose-related
Method: Testing was performed in a mouse scratch model under blind conditions.
Groups of 8-10 male Swiss albino mice (Hilltop Lab Animals, Inc., Scottsdale, Pa.), weighing […], were used in the testing. They were housed under controlled temperature of 23-25° C. Food and water were freely available. Before the experiments, the mice were weighed, put into individual boxes and allowed to acclimate for 30 min.
Vehicle used to dissolve the test compounds: 20% w/w cremophor EL.
[…] of the vehicle (3-5 doses, n-8-10) was injected s.c. into the back of the neck of mice 20 min. before challenging them with 100 μl of Compound 48/80 (2 mg/ml; 50 μg) injected s.c. into the back of the neck.
To each mouse of a group of 8-10 mice previously subjected to the standard challenge various doses of the compounds, to be tested for anti-pruritic activity, were administered s.c. into the back of the neck.
For each group of 8-10 mice, the mean values for scratching were normalized to relative % antagonism of scratching and then plotted vs. dose of test compounds. Interval estimates of mean A50 were determined by nonlinear regression analysis (Kalcida Graph) and mean % inhibition of scratching was calculated.

[3] = reported; antidiarrheal use; cited from earlier work
[4] = test system: warm water induced tail withdrawal reflex / castor oil diarrhea; conditions: po
Text: Peripheral selectivity is defined by the ratio of the ED50 in the tail-withdrawal assay over the ED50 in the anti-diarrheal assay.
Measure of Centrally-Mediated Opiod Analgesia by the Tail-Withdrawal Assay (Janssen, P. A. J.; Niemegeers, C. J. E.; Dony, J. G. H., The Inhibitory effect of Fentanyl and other morphine-like analgesics on the warm water induced tail withdrawal reflex in rats. Arzneimittel-Forschung 1963, 13, 502-507.)
Young female Wistar rats (170-210 g body weight) are used only once. […] Around 8:30 AM the "normal" reaction time of each rat is determined by immersing the lower 5 cm portion of the tail in a cup freshly filled with water from a large constant temperature (55° C.) bath until the typical tail withdrawal response is observed. […] The reaction time is measured in 0.5 second units with a stopwatch. […] Periodically thereafter (i.e., 1/4, 1/2, 1, 2, 3, 4, 5 and 6 hours after dosage) the reaction time is again measured by trained technicians unaware of the nature of the compounds. Results of these studies are expressed as ED50 concentration values (mg/kg), calculated as the dose producing a tail withdrawal latency equal to half the difference between the maximum latency (≤15 seconds) and the baseline latency (6 to 8 seconds). […]

## cyclosporin A
[1]; atopic dermatitis
  inhibition of itch in atopic dermatitis (in words): itch is not inhibited by antihistamines, but by cyclosporin A

## CN1CC[C@]23c4c5ccc(O)c4O[C@H]2[C@@H](O)C=C[C@H]3[C@H]1C5 [morphine]
[1]; i.v.
  generalized itching, incidence: about 1 % of patients

## O=C(N1CCCCC1)C(CCN1CCC(O)(c2ccccc2)CC1)(c1ccccc1)c1ccccc1 [Compound 1, 1-[4-(4-Hydroxy-4-phenyl-1-piperidino)-2,2-diphenylbutyryl]piperidine]
[2]; 2.5 mg/kg
  Mean % Inhibition of Scratching: 32%
[2]; 5.0 mg/kg
  Mean % Inhibition of Scratching: 65%
[2]; 10.0 mg/kg
  Mean % Inhibition of Scratching: 83%
[2]
  antagonism of Compound 48/80-induced scratching (in words): antagonized Compound 48/80-induced scratching in a dose-related manner

## CN(C)C(=O)C(CCN1CCC(O)(c2ccc(Cl)cc2)CC1)(c1ccccc1)c1ccccc1 [Compound 6, 4-(p-Chlorophenyl)-4-hydroxy-N,N-dimethyl-α,α-diphenyl-1-piperidinebutyramide]
[3]
  CNS effects (in words): devoid of CNS effects
[2]
  antagonism of Compound 48/80-induced scratching (in words): antagonized Compound 48/80-induced scratching in a dose-related manner

## O=C(N1CCCC1)C(CCN1CCC(O)(c2ccc(Cl)c(Cl)c2)CC1)(c1ccccc1)c1ccccc1 [Compound 4]
[4]
  Peripheral Selectivity (ED50tw /ED50 Castor Oil): > 640

## CN(C)C(=O)C(CCN1CCC(O)(c2ccc(Cl)cc2)CC1)(c1ccccc1)c1ccccc1.Cl [Example 2, 4-(p-Chlorophenyl)-4-hydroxy-N,N-dimethyl-α,α-diphenylpiperidine-1-butyramide hydrochloride]
[3]
  CNS effects (in words): completely free of the undesirable CNS effects

## CN(C)C(=O)C(CCN1CCC(O)(c2ccc(Br)cc2)CC1)(c1ccccc1)c1ccccc1 [Compound 3, 4-(p-Bromophenyl)-4-hydroxy-N,N-dimethyl-α,α-diphenyl-1-piperidinebutyramide]
[2]
  antagonism of Compound 48/80-induced scratching (in words): antagonized Compound 48/80-induced scratching in a dose-related manner

## NCCc1c[nH]cn1 [histamine]
[1]; humans / application to skin
  induction of itch (in words): produces itch but not pain
